Common to all, as to type: functional, cell-based
For assay [1], the system named is Premature termination codon. Nature of the assay: Readthrough activity against UAA type PTC 5'-TTGAAAGAGCAATAAAATGGCTTCAAC-3' from DMD mdx mouse overexpressed in COS7 cells assessed as ratio of luciferase activity to beta-galactosidase activity at 200 uM incubated for 48 hrs by Dual luciferase reporter assay. On the technique in general: A reporter such as luciferase makes a cellular process visible.

For assay [2], the system named is Premature termination codon. Kind of assay: Readthrough activity against UAG type PTC 5'-TTGAAAGAGCAATAAAATGGCTTCAAC-3' from DMD mdx mouse overexpressed in COS7 cells assessed as ratio of luciferase activity to beta-galactosidase activity at 200 uM incubated for 48 hrs by Dual luciferase reporter assay.
The test system of assay [3] is Premature termination codon. Kind of assay: Readthrough activity against UGA type PTC 5'-TTGAAAGAGCAATAAAATGGCTTCAAC-3' from DMD mdx mouse overexpressed in COS7 cells assessed as ratio of luciferase activity to beta-galactosidase activity at 200 uM incubated for 48 hrs by Dual luciferase reporter assay.
In assay [4] the test system is Premature termination codon. Nature of the assay: Readthrough activity against UGA type PTC 5'-TTGAAAGAGCAATAAAATGGCTTCAAC-3' from DMD mdx mouse overexpressed in COS7 cells assessed as ratio of luciferase activity to beta-galactosidase activity incubated for 48 hrs by Dual luciferase reporter assay. Conditions: dose 6.25-200 µM.
Assay [5] relates to Premature termination codon. Nature of the assay: Potency index, ratio of 2,6-diaminopurine to test compound for readthrough activity against UGA type PTC 5'-TTGAAAGAGCAATAAAATGGCTTCAAC-3' from DMD mdx mouse overexpressed in COS7 cells at 200 uM incubated for 48 hrs by Dual luciferase reporter assay.
The test system of assay [6] is Premature termination codon. Kind of assay: Potency index, ratio of G418 to test compound for readthrough activity against UGA type PTC 5'-TTGAAAGAGCAATAAAATGGCTTCAAC-3' from DMD mdx mouse overexpressed in COS7 cells at 200 uM incubated for 48 hrs by Dual luciferase reporter assay.
Assay [7] has as its system Premature termination codon. Nature of the assay: Readthrough activity against UGA type PTC 5'-TTGAAAGAGCAATAAAATGGCTTCAAC-3' from DMD mdx mouse overexpressed in COS7 cells assessed as readthrough efficiency at 200 uM incubated for 48 hrs by Dual luciferase reporter assay relative to control.
The subject of assay [8] is Premature termination codon. Nature of the assay: Readthrough activity against UGA type PTC 5'-TTGAAAGAGCAATAAAATGGCTTCAAC-3' from DMD mdx mouse overexpressed in COS7 cells assessed as ratio of luciferase activity to beta-galactosidase activity at 6.25 to 200 uM incubated for 48 hrs by Dual luciferase reporter assay. The settings on record: dose 6.25-200 µM.

These results are taken from ChEMBL document CHEMBL5390306, “Development of Conformationally Restricted Negamycin Derivatives for Potent Readthrough Activity” (ACS Med Chem Lett, 2023).

Calls of active or inactive are those of the source. The rule behind the calls is not given here.

`CN(CC(=O)O)NC(=O)C[C@H](N)C[C@@H](O)CN`: the Ratio in assay [1] was 1.31; in assay [2], 0.91; in assay [3], 1.55.
For `CN(CC(=O)O)NC(=O)C[C@@H](N)CCCN` the same measures were 1.22, 1.95 and 2.69.
As for `CN(CC(=O)O)NC(=O)C[C@@H](N)[C@H]1C[C@H]1CN`, in assay [4], the Activity entry is “Dose-Dependent Effect”. Moreover, the results for the Ratio in assay [1], in assay [2] and in assay [3] were 1.3, 6.24 and 8.36, respectively.
For `CCCCCCC(=O)NC[C@H](N)C(=O)N[C@H](CC(=O)NN(C)CC(=O)O)[C@H]1C[C@H]1CN`, the Ratio in assay [3] is 1.38.
Still for that read-out and setting: the figure for `COCCCCCCC[C@H](N)C(=O)N[C@H](CC(=O)NN(C)CC(=O)O)[C@H]1C[C@H]1CN` is 1.94.
As to `CC(C)C[C@H](N)C(=O)N[C@H](CC(=O)NN(C)CC(=O)O)[C@H]1C[C@H]1CN`, the Ratio in assay [3] came out at 3.08.
In the case of `CCCCCCCCC[C@H](N)C(=O)N[C@H](CC(=O)NN(C)CC(=O)O)[C@H]1C[C@H]1CN`, the Activity result in assay [4] is “Dose-Dependent Effect”; in assay [7], 2.88%. Moreover, the fold change (FC) in assay [5] and in assay [6] was 2 in each case. Also, the Ratio in assay [1] is 1.81; in assay [2], 11.4; in assay [3] it was 23.
`CN[C@@H]1[C@@H](O)[C@@H](O[C@@H]2[C@@H](O)[C@H](O[C@H]3O[C@H]([C@@H](C)O)[C@@H](O)[C@H](O)[C@H]3N)[C@@H](N)C[C@H]2N)OC[C@]1(C)O`: the values for the Activity entry in assay [4] and in assay [7] were “Dose-Dependent Effect” and 1.71%, respectively. Also, the Ratio is 4.5 in assay [1], 4.68 in assay [2] and 6.01 in assay [3].
As for `O=C(O)c1cccc(-c2noc(-c3ccccc3F)n2)c1`, the result in assay [8] was Active.
Turning to `CC(C)C[C@@H](N)C(=O)N[C@H](CC(=O)NN(C)CC(=O)O)[C@H]1C[C@H]1CN`, in assay [3], the Ratio is 1.01.
Still for that read-out and setting: under `CN(CC(=O)O)NC(=O)C[C@@H](NC(=O)[C@@H](N)CCCCCCCO)[C@H]1C[C@H]1CN` stands 3.25.
Take `Nc1nc(N)c2nc[nH]c2n1`: the Activity entry in assay [4] was “Dose-Dependent Effect”.
`CCCC(=O)NCCCC[C@H](N)C(=O)N[C@H](CC(=O)NN(C)CC(=O)O)[C@H]1C[C@H]1CN`: the Ratio in assay [3] is 2.05.
Same read-out and setting: under `CCCCCCCCC[C@H](N)C(=O)N[C@@H](CCCN)CC(=O)NN(C)CC(=O)O` stands 19.5.
Same read-out and setting: the figure for `CCCCCC/C=C/C[C@H](N)C(=O)N[C@H](CC(=O)NN(C)CC(=O)O)[C@H]1C[C@H]1CN` is 16.9.
